Experimental data as given in US20130310411A1, “NOVEL ACRIDINE DERIVATIVES” (PHARMINOX LIMITED, priority 2010, published 2013).

Key:
[1] = system: HT-29: human adenocarcinoma cell line; experiment: Growth inhibition assay (MTT); assay type: cell-based; conditions: HT-29 cells, 96 hr incubation
Method: Growth inhibition was measured in the HT-29: human adenocarcinoma cell line using the 3-(4,5-Dimethylthiazol-2-yl)-2,5-diphenyltetrazolium bromide (MTT) assay:
Briefly, between 1500 and 2200 cells were seeded into the wells of 96-well microtiter plates and allowed to attach overnight. Test compounds were solubilised at 10 mM in dimethyl sulfoxide (DMSO), diluted in tissue culture media and added to cells at final concentrations of 30, 10, 3, 1, 0.3, 0.1, 0.03 and 0.01 μM in triplicate. Following an incubation period of 96 hr MTT was added to a final concentration of 400 μg/ml and the plates incubated for a further 4 hr. The media/MTT was then aspirated and 150 μl DMSO added. Plates were shaken briefly and the absorbance at 550 nm read using a Labtech LT-4000 plate reader. An extra plate was seeded and the MTT assay was carried out on this plate at the time of drug addition to ascertain an initial absorbance value.
Dose response curves were plotted and the GI50 values (concentration required to inhibit cell growth by 50%) determined for each agent where the absorbance value for control cells minus the initial absorbance was taken as 100% growth.

[2] = system: hTel, 5′ biotin-d[AG3(T2AG3)3]3′ (quadraplex) versus duplex, 5′biotind[CGA3T3C2TCTGA3T3CG]3′; experiment: Surface Plasmon Resonance Assay (SPR); assay type: binding; conditions: HEPES buffer pH 7.3, 25° C.
Method: Biosensor experiments were conducted in filtered, degassed HEPES buffer (10 mM HEPES, 100 mM KCl, 3 mM EDTA, 0.000 05 v/v of 10% P20 BIACORE surfactant, pH 7.3) at 25° C. The 5′-biotin labeled DNA sequences (Integrated DNA Technologies) were HPLC purified and comprise the following sequences: hTel, ^5′ biotin-d[AG3(T2AG3)3]^3′; duplex, ^5′biotind[CGA3T3C2TCTGA3T3CG]^3′. The experiments were conducted upon a BIAcore 2000 optical biosensor instrument (BIAcore Inc.). Flow cell 1 was left blank as a reference, while flow cells 2-4 were immobilized with DNA on a streptavidin-derivatized gold chip (SA chip from BIAcore) by manual injection of DNA stock solutions (flow rate of 1 μL/min) until the desired value of DNA response was obtained (350-400 RU). Typically, a series of different ligand concentrations (1 nM to 10 μM from 20 mM DMSO stock) were injected onto the chip (flow rate of 50 μL/min, 5-10 min) until a constant steady-state response was obtained followed by a dissociation period (buffer, 10 min). After every cycle, the chip surface was regenerated (20 s injection of 10 mM glycine solution, pH 2.0) followed by running buffer flow. The data were processed using BIAevaluation (BIAcore Inc.) and Kaleidagraph (Synergy Software) software for nonlinear least-squares optimization of the binding parameters.

SMILES	GI50 [1]	Quadraplex:duplex ratio [2]
COc1cccc2c1-c1cccc3c1c(c1ccccc1[n+]3C)S2 [Example 9, 4-methoxy-8-methylthiochromeno[4,3,2-kl]acridin-8-ium iodide]	0.95 µM	–
COC(=O)c1ccc2c(c1)-c1cccc3c1c(c1ccccc1[n+]3C)S2 [Example 20, 3-(methoxycarbonyl)-8-methylthiochromeno[4,3,2-kl]acridin-8-ium iodide and chloride]	6.46 µM	–
COC(=O)c1ccc2c(c1)Sc1c3ccc(OC)cc3[n+](C)c3cccc-2c13 [Example 11, 10-methoxy-2-(methoxycarbonyl)-8-methylthiochromeno[4,3,2-kl]acridin-8-ium chloride]	0.76 µM	17.4
COc1ccc2c3c4c(c(OC)ccc4[n+](C)c2c1)-c1ccccc1S3 [Example 19, 5,10-dimethoxy-8-methylthiochromeno[4,3,2-kl]acridin-8-ium iodide]	1.03 µM	–
CC(=O)Nc1ccc2c(c1)-c1cccc3c1c(c1ccccc1[n+]3C)O2 [Example 7, acetamido-8-methylchromeno[4,3,2-kl]acridin-8-ium chloride]	0.95 µM	–
COc1ccc2c(c1)-c1cccc3c1c(c1ccc(OC)cc1[n+]3C)S2 [Example 10, 3,10-dimethoxy-8-methylthiochromeno[4,3,2-kl]acridin-8-ium chloride]	0.27 µM	7.0
CC(=O)Nc1ccc2c(c1)-c1cccc3nc4ccccc4c(c13)O2 [Example 6, N-(chromeno[4,3,2-kl]acridin-3-yl)acetamide]	9.39 µM	–
COc1ccc2c(c1)-c1cccc3c1c(c1ccccc1[n+]3C)S2 [Example 8, 3-methoxy-8-methylthiochromeno[4,3,2-kl]acridin-8-ium chloride]	1.04 µM	–
CC(=O)Oc1ccc2c(c1)-c1cccc3c1c(c1ccccc1[n+]3C)S2 [Example 13, 3-acetoxy-8-methylthiochromeno[4,3,2-kl]acridin-8-ium chloride]	6.17 µM	–
C[n+]1c2ccccc2c2c3c(cccc31)-c1cc(O)ccc1S2 [Example 14, 3-hydroxy-8-methylthiochromeno[4,3,2-kl]acridin-8-ium chloride]	3.67 µM	>80
C[n+]1c2ccccc2c2c3c(cccc31)-c1ccccc1S2 [Example 3, 8-methylthiochromeno[4,3,2-kl]acridin-8-ium chloride]	3.04 µM	–
C[n+]1c2ccccc2c2c3c(cccc31)-c1ccccc1O2.[Cl-] [Example 2, 8-Methylchromeno[4,3,2-kl]acridin-8-ium chloride]	0.93 µM	4.75
[O-][n+]1c2ccccc2c2c3c(cccc31)-c1ccccc1O2 [Example 4, chromeno[4,3,2-kl]acridine 8-oxide]	> 30 µM	7.5
CC(=O)Nc1cccc2c1-c1cccc3c1c(c1ccccc1[n+]3C)S2 [Example 18, 4-acetamido-8-methylthiochromeno[4,3,2-kl]acridin-8-ium iodide]	9.66 µM	–
COC(=O)c1ccc2c(c1)Sc1c3ccccc3[n+](C)c3cccc-2c13 [Example 15, 2-(methoxycarbonyl)-8-methylthiochromeno[4,3,2-kl]acridin-8-ium chloride]	2.99 µM	18.1
COC(=O)c1cccc2c1-c1cccc3c1c(c1ccc(OC)cc1[n+]3C)S2 [Example 12, 10-methoxy-4-(methoxycarbonyl)-8-methylthiochromeno[4,3,2-kl]acridin-8-ium chloride]	4.49 µM	>53
COCOc1ccc2c(c1)-c1cccc3nc4ccccc4c(c13)S2 [Example 17, 3-(methoxymethoxy)thiochromeno[4,3,2-kl]acridine]	1.88 µM	–
c1ccc2c(c1)Oc1c3ccccc3nc3cccc-2c13 [Example 1, Chromeno[4,3,2-kl]acridine]	10.4 µM	–
CCOC(=O)C[n+]1c2ccccc2c2c3c(cccc31)-c1ccccc1O2 [Example 5, 8-(2-ethoxy-2-oxoethyl)chromeno[4,3,2-kl]acridin-8-ium iodide]	9.88 µM	–
COC(=O)c1cccc2c1-c1cccc3c1c(c1ccccc1[n+]3C)S2 [Example 16, 4-(methoxycarbonyl)-8-methylthiochromeno[4,3,2-kl]acridin-8-ium iodide]	12.8 µM	–
